The record followed here is patent publication US6849438B1, “Isolated and purified human soluble guanylyl cyclase α1/β1 (hsgcα1/β1)” (Vasopharm Biotech GmbH, priority 1998, dated 2005).

Each structure is given as a SMILES string.

This experiment deals with T1, recombinant human sGC (rhsGCα1/rhsGCβ1) in intact Sf9 cells (Homo sapiens, UniProt Q02108+Q02153).
T1 construct: Thus, the complete hsGCα1 cDNA is under the control of the polyhedrin promotor (PHP); Thus, the complete hsGCβ1 cDNA is under the control of the polyhedrin promotor (PHP); expressed in transfected cells; host or cells: Sf9 insect cells coinfected with recombinant baculoviruses (pVL1393-derived)
T1 sequence (Q02108 1-690): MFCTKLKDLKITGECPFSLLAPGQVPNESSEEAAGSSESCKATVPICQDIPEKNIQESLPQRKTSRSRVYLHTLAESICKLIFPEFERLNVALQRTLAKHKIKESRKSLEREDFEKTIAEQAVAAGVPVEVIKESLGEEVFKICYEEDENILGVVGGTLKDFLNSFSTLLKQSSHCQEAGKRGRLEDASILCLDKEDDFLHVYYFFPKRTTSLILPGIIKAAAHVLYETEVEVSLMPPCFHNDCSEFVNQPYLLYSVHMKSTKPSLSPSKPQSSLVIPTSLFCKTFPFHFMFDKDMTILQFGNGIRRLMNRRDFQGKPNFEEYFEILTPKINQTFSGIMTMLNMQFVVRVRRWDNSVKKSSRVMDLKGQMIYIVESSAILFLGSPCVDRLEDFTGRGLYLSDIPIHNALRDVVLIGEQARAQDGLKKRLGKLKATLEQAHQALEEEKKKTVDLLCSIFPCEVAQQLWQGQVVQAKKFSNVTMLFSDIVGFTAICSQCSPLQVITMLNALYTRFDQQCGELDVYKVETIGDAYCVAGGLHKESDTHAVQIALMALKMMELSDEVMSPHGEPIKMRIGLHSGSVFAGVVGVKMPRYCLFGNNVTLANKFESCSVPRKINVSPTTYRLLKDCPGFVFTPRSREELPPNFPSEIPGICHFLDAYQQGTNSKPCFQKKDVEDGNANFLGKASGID
T1 sequence (Q02153 1-619): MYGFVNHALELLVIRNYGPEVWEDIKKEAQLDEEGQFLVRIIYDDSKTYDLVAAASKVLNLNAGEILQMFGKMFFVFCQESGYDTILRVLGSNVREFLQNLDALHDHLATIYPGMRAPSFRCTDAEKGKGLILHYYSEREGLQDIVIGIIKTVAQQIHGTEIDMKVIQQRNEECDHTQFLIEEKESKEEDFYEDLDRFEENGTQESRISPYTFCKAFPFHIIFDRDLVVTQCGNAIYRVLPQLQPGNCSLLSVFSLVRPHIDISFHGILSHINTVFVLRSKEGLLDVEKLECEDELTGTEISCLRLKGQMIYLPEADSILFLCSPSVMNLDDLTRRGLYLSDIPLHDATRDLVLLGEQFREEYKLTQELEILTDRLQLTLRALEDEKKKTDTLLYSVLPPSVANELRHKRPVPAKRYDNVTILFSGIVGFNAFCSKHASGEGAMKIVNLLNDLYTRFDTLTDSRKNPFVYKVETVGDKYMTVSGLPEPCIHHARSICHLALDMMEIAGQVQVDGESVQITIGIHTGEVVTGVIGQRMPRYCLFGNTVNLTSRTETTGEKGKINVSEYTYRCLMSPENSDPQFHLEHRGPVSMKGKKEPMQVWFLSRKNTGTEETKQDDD
As to the kind of experiment: cGMP content (RIA) in intact Sf9 cells coexpressing rhsGCα1 and rhsGCβ1. Type of experiment: cell-based. As for the experimental part: For the production of functional heterodimeric human sGC, rhsGCα1 and rhsGCβ1 were coexpressed in Sf9 cells with recombinant baculoviruses. For this, Sf9 monolayer cultures [2.5×10^6 cells/dish, Ø 90 mm; supplements see example 2] were coinfected with a M.O.I. (multiplicity of infection) of 2 pfu/cell of each recombinant baculovirus (hsGCα1 and hsGCβ1; both without GST-tag) and cultivated for 48 hours at 27° C. The basal as well as the NO-stimulated activity of the sGC in the cells was determined by measurement of the cGMP content in the cells in the presence of the phosphodiesterase inhibitor IBMX (3-isobutyl-1-methylxanthine).
For the determination of the cGMP content, the culture media was replaced by Krebs-Ringer-buffer (KRB; […]; 4.74 mM KCI; 2.54 mM CaCl2; 1.19 mM MgSO4; 1.19 mM KH2PO4; 25 mM NaHCO3; 10 mM HEPES; pH 7.4; 0.1% BSA) which, in addition, contained 1 mM IBMX. The cells were incubated for one hour at 27° C. Then the cells were washed with ice-cold KRP and harvested in 1 ml ice-cold ethanol (80%) with a cell scraper. The cells were homogenized by sonication [see Example 3] and centrifuged at 20,000×g for 20 minutes. The supernatant was dried in a speed-vac and the residue resuspended in 25 mM TEA, pH 7.8. The cGMP content was determined by means of RIA (Biotrend).

Consider `O=c1onc2cnc3ccccc3n12` [ODQ, 1H-[1,2,4]oxadiazolo[4,3,-a]chinoxalin-1-on], for which, where the note is “basal, without SNP”, the “influence on basal cGMP levels” value is “did not have an influence”. For the same molecule, the “effect on stimulation of rhsGC with SNP” value (simultaneous incubation with ODQ and SNP) was “inhibited”.
Regarding `OCc1ccc(-c2nn(Cc3ccccc3)c3ccccc23)o1` [YC-1, 3-(5′-hydroxymethyl-2′-furyl)-1-benzylindazol], the “increase of cGMP content” value is 3.4 fold (10 μM YC-1 for 2 minutes) and “the same effect” (100 μM YC-1, compared with 10 μM YC-1). The “cGMP levels compared to stimulation with SNP alone” value (YC-1 simultaneously with 100 μM SNP) is listed as “doubled”.
